In one test the target is T1, interaction of ICAM-1 with the Leukointegrin CD18/CD11a (LFA-1) (Homo sapiens, UniProt P05107+P20701).
T1 construct: endogenous in cells; sICAM-1: made in house, secreted from transfected CHO DUX cells
T1 sequence (P20701 26-1170): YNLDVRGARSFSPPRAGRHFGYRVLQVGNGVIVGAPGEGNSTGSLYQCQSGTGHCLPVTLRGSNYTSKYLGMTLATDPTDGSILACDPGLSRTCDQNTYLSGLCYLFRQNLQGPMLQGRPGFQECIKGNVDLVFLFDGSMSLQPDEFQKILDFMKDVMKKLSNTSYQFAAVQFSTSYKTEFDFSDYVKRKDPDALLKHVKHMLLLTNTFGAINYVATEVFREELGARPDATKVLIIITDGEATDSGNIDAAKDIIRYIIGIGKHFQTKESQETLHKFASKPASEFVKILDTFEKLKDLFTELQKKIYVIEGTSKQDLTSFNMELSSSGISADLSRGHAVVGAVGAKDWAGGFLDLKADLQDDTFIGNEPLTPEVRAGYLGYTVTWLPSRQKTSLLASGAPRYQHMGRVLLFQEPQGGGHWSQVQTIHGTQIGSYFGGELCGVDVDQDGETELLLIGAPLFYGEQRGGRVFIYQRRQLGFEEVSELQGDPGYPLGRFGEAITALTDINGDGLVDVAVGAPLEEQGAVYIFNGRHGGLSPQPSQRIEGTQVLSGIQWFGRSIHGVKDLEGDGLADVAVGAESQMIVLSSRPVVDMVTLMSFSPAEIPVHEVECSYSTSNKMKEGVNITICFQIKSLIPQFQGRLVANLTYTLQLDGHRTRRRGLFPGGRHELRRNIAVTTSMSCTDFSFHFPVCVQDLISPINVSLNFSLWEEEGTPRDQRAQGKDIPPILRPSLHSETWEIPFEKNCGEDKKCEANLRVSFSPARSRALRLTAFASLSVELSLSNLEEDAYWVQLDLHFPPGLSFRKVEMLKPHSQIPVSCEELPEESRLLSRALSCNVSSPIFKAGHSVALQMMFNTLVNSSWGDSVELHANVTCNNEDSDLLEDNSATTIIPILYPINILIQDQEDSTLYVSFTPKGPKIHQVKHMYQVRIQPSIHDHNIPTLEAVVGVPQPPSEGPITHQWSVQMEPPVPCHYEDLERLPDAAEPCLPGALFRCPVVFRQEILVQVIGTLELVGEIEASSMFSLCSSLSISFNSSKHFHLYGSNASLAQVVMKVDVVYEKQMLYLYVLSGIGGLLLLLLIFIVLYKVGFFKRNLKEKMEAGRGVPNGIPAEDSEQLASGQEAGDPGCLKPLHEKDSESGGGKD
T1 sequence (P05107 23-769): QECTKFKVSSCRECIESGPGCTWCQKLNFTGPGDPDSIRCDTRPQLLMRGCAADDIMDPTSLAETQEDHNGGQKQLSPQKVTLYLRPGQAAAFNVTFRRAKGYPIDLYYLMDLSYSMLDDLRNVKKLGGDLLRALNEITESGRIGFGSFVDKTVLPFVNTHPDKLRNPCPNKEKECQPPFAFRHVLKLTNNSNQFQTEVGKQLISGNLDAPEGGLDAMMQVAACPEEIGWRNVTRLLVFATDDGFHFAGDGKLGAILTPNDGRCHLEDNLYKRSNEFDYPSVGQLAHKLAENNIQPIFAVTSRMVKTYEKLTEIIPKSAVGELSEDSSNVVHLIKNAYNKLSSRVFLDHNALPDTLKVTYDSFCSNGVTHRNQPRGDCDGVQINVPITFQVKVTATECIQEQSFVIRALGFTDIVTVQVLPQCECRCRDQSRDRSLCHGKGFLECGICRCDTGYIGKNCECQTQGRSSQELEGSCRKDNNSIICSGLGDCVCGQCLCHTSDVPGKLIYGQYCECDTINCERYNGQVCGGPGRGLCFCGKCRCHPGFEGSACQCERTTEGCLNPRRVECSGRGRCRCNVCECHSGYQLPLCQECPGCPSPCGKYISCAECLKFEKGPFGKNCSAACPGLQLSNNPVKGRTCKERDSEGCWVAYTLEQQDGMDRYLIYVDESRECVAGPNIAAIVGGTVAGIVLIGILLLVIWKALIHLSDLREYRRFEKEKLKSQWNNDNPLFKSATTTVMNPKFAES
As to the kind of experiment: Assay to determine inhibition of LFA-1 binding to ICAM-1 (immunopurified LFA-1 on plate-bound sICAM-1, ELISA readout).
Details: not given
`CC1(Cc2ccc(-c3ccccc3C(F)(F)F)cc2)NC(=O)N(c2cc(Cl)cc(Cl)c2)C1=O` (centres unmarked) [Example 213] came in with a Kd of approximately 2000 nM.

Compound `C[C@@]1(Cc2ccc(Br)cc2)C(=O)N(c2cc(Cl)cc(Cl)c2)C(=O)N1Cc1ccccc1C(=O)O` [Example 239] had a Kd of 280 nM.

As for `C[C@@]1(Cc2ccc(Br)cc2)C(=O)N(c2cc(Cl)cc(Cl)c2)C(=O)N1C(=O)[C@@H](N)CO` [Example 233], the dissociation constant (Kd) turned out to be 1790 nM.

Turning to `C[C@@]1(Cc2ccc(Br)cc2)C(=O)N(c2cc(Cl)cc(Cl)c2)C(=O)N1COC(=O)C(CO)CO` [Example 238], the equilibrium dissociation constant (Kd) worked out at 80 nM.

For the compound `CC1(Cc2ccc(-c3cccc(F)c3)cc2)NC(=O)N(c2cc(Cl)cc(Cl)c2)C1=O` (centres unmarked) [Example 212], the Kd is 70 nM.

On to `C[C@@]1(Cc2ccc(Br)cc2)C(=O)N(c2cc(Cl)cc(Cl)c2)C(=O)N1C(=O)[C@H](N)CO` [Example 232], for which the Kd was 1240 nM.

Consider `COc1cccc(-c2ccc(CC3(C)NC(=O)N(c4cc(Cl)cc(Cl)c4)C3=O)cc2)c1` (centres unmarked) [Example 214], for which the Kd is 90 nM.

As to `C[C@]1(Cc2ccc(C(=O)c3ccccc3)cc2)NC(=O)N(c2cc(Cl)cc(Cl)c2)C1=O` [Example 216], the Kd was 500 nM.

The compound `C[C@@]1(Cc2ccc(Br)cc2)C(=O)N(c2cc(Cl)cc(Cl)c2)C(=O)N1CCCCCP(=O)(O)O` [Example 222] gave a Kd of 60 nM.

With `CN1C(=O)N(c2cc(Cl)cc(Cl)c2)C(=O)C1(CN)Cc1ccc(Br)cc1` (centres unmarked) [Example 230], the Kd stood at 2200 nM.

Regarding `CN1C(=O)N(c2cc(Cl)cc(Cl)c2)C(=O)C1(C)Cc1ccc(C(=O)N2CCCCC2)cc1` (centres unmarked) [Example 259], the Kd is 3540 nM.

For the compound `CC1(Cc2ccccc2)C(=O)N(c2cc(Cl)cc(Cl)c2)C(=O)N1CCCCC(=O)O` (centres unmarked) [Example 219], the Kd is 1030 nM.

As for `C[C@@]1(Cc2ccc(Br)cc2)C(=O)N(c2cc(Cl)cc(Cl)c2)C(=O)N1Cc1ccc(O)cc1` [Example 246], binding was characterised by a dissociation constant (Kd) of 250 nM.

Take `C[C@@]1(Cc2ccc(Br)cc2)C(=O)N(c2cc(Cl)cc(Cl)c2)C(=O)N1CCCCCCP(=O)(O)O` [Example 220]: binding was put at a Kd of 270 nM.

The compound `CC1(Cc2ccc(-c3cc4ccccc4o3)cc2)NC(=O)N(c2cc(Cl)cc(Cl)c2)C1=O` (centres unmarked) [Example 209] had a Kd of 940 nM.

In turn, `C[C@@]1(Cc2ccc(Br)cc2)C(=O)N(c2cc(Cl)cc(Cl)c2)C(=O)N1C1CCN(CP(=O)(O)O)CC1` [Example 236] came in with a Kd of 330 nM.

In turn, `C[C@@]1(Cc2ccc(Br)cc2)C(=O)N(c2cc(Cl)cc(Cl)c2)C(=O)N1C(=O)[C@@H]1CCCN1` [Example 234] registered a Kd of 410 nM.

Regarding `CC1(Cc2ccc(-c3ccc4ccccc4c3)cc2)NC(=O)N(c2cc(Cl)cc(Cl)c2)C1=O` (centres unmarked) [Example 211], the Kd was approximately 2000 nM.

The same test, now with this note: at 160 μg/mL; read-out: LFA-1/ICAM Binding Assay percent inhibition.
Take `O=C1NC(Cc2cccnc2)C(=O)N1c1cc(Cl)cc(Cl)c1` (centres unmarked) [Example 181]: the inhibition at 160 µg/mL was found to be 47%.

The same test, now with this note: values marked e approximated from incomplete dose-response curve.
The compound `CN1C(=O)N(c2cc(Cl)cc(Cl)c2)C(=O)C1(C)Cc1ccc2ccccc2n1` (centres unmarked) [Example 161] showed a Kd of 4560 nM.

Compound `C[C@H](O)CN1C(=O)N(c2cc(Cl)cc(Cl)c2)C(=O)[C@@]1(C)Cc1ccc(Br)cc1` [Example 116] had an equilibrium dissociation constant (Kd) of 190 nM.

In turn, `COc1cccc(CN2C(=O)N(c3cc(Cl)cc(Cl)c3)C(=O)[C@@]2(C)Cc2ccc(Br)cc2)n1` [Example 112] came in with a Kd of 390 nM.

The compound `CC1(Cc2ccccc2)C(=O)N(c2cc(Cl)cc(Cl)c2)C(=O)N1C1CCCCC1` (centres unmarked) [Example 33] gave a Kd of 940 nM.

For `CN(C)CCN1C(=O)N(c2cc(Cl)cc(Cl)c2)C(=O)[C@@]1(C)Cc1ccc(Br)cc1` [Example 108], the Kd came out at 410 nM.

As to `O=C1NC(Cc2ccccc2)C(=O)N1c1cc(Cl)c(Cl)c(Cl)c1` (centres unmarked) [Example 70], the Kd was 1890 nM.

As for `Cc1cc(C)cc(CC2(C)C(=O)N(c3cc(Cl)cc(Cl)c3)C(=O)N2C)c1` (centres unmarked) [Example 162], the Kd was found to be 1050 nM.

For `C[C@]1(Cc2cccc(-c3ccccc3)c2)NC(=O)N(c2cc(Cl)cc(Cl)c2)C1=O` [Example 185], binding was characterised by a dissociation constant (Kd) of 250 nM.

`CN1C(=O)N(c2cc(Cl)cc(Cl)c2)C(=O)C1(C)Cc1ccccc1Br` (centres unmarked) [Example 145] had a Kd of 1050 nM.

Turning to `CC1(Cc2cc(F)cc(F)c2)NC(=O)N(c2cc(Cl)cc(Cl)c2)C1=O` (centres unmarked) [Example 58], the affinity, expressed as Kd, was 2850 nM.

Take `Cc1ccccc1CC1(C)C(=O)N(c2cc(Cl)cc(Cl)c2)C(=O)N1C` (centres unmarked) [Example 142]: the Kd is 430 nM.

`C[C@H]1C(=O)N(c2cc(Cl)cc(Cl)c2)C(=O)[C@]1(C)Cc1ccccc1` [Example 74] yielded an equilibrium dissociation constant (Kd) of 670 nM.

Compound `O=C1NC(C(c2ccccc2)c2ccccc2)C(=O)N1c1cc(Cl)cc(Cl)c1` (centres unmarked) [Example 13] displayed a Kd of 1960 nM.

Compound `COCC1(Cc2ccc(Br)cc2)C(=O)N(c2cc(Cl)cc(Cl)c2)C(=O)N1C` (centres unmarked) [Example 175] showed a Kd of 230 nM.

On to `CCOc1cccc(-c2ccc(CC3(C)NC(=O)N(c4cc(Cl)cc(Cl)c4)C3=O)cc2)c1` (centres unmarked) [Example 198], for which binding was characterised by a dissociation constant (Kd) of 140 nM.

Compound `CC1(Cc2cccc(OC(F)(F)F)c2)NC(=O)N(c2cc(Cl)cc(Cl)c2)C1=O` (centres unmarked) [Example 68] showed an equilibrium dissociation constant (Kd) of 2580 nM.

`CC(C)(C)C(=O)c1ccc(CC2(C)NC(=O)N(c3cc(Cl)cc(Cl)c3)C2=O)cc1` (centres unmarked) [Example 47] showed a Kd of 4310 nM.

As to `C[C@@]1(Cc2ccc(Br)cc2)C(=O)N(c2cc(Cl)cc(Cl)c2)C(=O)N1Cc1ccc(C#N)cc1` [Example 115], binding was characterised by a dissociation constant (Kd) of 240 nM.

`C[C@]1(Cc2ccc(Br)cc2)NC(=O)N(c2cccc(Cl)c2)C1=O` [Example 36] displayed a Kd of 4050 nM.

Turning to `CCN1C(=O)N(c2cc(Cl)cc(Cl)c2)C(=O)C1(C)Cc1ccc(Br)cc1` (centres unmarked) [Example 105], the Kd worked out at 120 nM.

In turn, `CC1(Cc2cccc(C(F)(F)F)c2)NC(=O)N(c2cc(Cl)cc(Cl)c2)C1=O` (centres unmarked) [Example 53] returned a Kd of 1470 nM.

In turn, `CC1(Cc2cccc(Oc3ccccc3)c2)NC(=O)N(c2cc(Cl)cc(Cl)c2)C1=O` (centres unmarked) [Example 56] came in with a Kd of 480 nM.

Compound `Cc1ccc(CC2(C)C(=O)N(c3cc(Cl)cc(Cl)c3)C(=O)N2C)cc1` (centres unmarked) [Example 144] returned a Kd of 350 nM.

`CN1C(=O)N(c2cc(Cl)cc(Cl)c2)C(=O)C1(C)Cc1cccc(C#N)c1` (centres unmarked) [Example 153]: the Kd was 2190 nM.

`C[C@@H]1C(=O)N(c2cc(Cl)cc(Cl)c2)C(=O)[C@]1(C)Cc1ccc(Br)cc1` [Example 73] gave a Kd of 340 nM.

In turn, `CCOc1ccc(-c2ccc(CC3(C)NC(=O)N(c4cc(Cl)cc(Cl)c4)C3=O)cc2)cc1` (centres unmarked) [Example 207] returned a Kd of 1280 nM.

In the case of `CCC1(Cc2ccccc2)NC(=O)N(c2cc(Cl)cc(Cl)c2)C1=O` (centres unmarked) [Example 30], the equilibrium dissociation constant (Kd) came to 1480 nM.

`CN1C(=O)N(c2cc(Cl)cc(Cl)c2)C(=O)C1Cc1ccc(C(=O)c2ccccc2)cc1` (centres unmarked) [Example 95]: binding was characterised by a dissociation constant (Kd) of 260 nM.

`COc1ccccc1CN1C(=O)N(c2cc(Cl)cc(Cl)c2)C(=O)[C@@]1(C)Cc1ccc(Br)cc1` [Example 126]: the Kd turned out to be 810 nM.

Consider `CC1(Cc2ccccc2)C(=O)N(c2cc(Cl)cc(Cl)c2)C(=O)N1C1CC1` (centres unmarked) [Example 150], for which the Kd turned out to be 510 nM.

In turn, `CC1(Cc2ccc(C(F)(F)F)cc2)NC(=O)N(c2cc(Cl)cc(Cl)c2)C1=O` (centres unmarked) [Example 51] returned a Kd of 430 nM.

As to `CN1C(=O)N(c2cc(Cl)cc(Cl)c2)C(=O)C1(C)Cc1cccc(Cl)c1` (centres unmarked) [Example 155], the Kd was 510 nM.

For the compound `CC1(Cc2ccccc2Br)NC(=O)N(c2cc(Cl)cc(Cl)c2)C1=O` (centres unmarked) [Example 48], the Kd amounted to 1750 nM.

Compound `C[C@]1(Cc2c[nH]c3ccccc23)NC(=O)N(c2cc(Cl)cc(Cl)c2)C1=O` [Example 42] yielded a Kd of 600 nM.

`CC1(Cc2ccc(OC(F)(F)F)cc2)NC(=O)N(c2cc(Cl)cc(Cl)c2)C1=O` (centres unmarked) [Example 57]: the Kd is 360 nM.

For `CC1(Cc2ccc(-c3ccsc3)cc2)NC(=O)N(c2cc(Cl)cc(Cl)c2)C1=O` (centres unmarked) [Example 196], the affinity, expressed as Kd, was 90 nM.

Consider `COc1ccccc1-c1ccc(CC2(C)NC(=O)N(c3cc(Cl)cc(Cl)c3)C2=O)cc1` (centres unmarked) [Example 194], for which binding was characterised by a dissociation constant (Kd) of 270 nM.

For `CN1C(=O)N(c2cc(Cl)cc(Cl)c2)C(=O)C1(C)Cc1ccc(S(C)(=O)=O)cc1` (centres unmarked) [Example 176], binding was put at a Kd of 3960 nM.

Consider `CN1C(=O)N(c2cc(Cl)cc(Cl)c2)C(=O)C1C(O)c1ccccc1` (centres unmarked) [Example 178], for which binding was characterised by a dissociation constant (Kd) of 1170 nM.

With `C[C@@]1(Cc2ccc(Br)cc2)C(=O)N(c2cc(Cl)cc(Cl)c2)C(=O)N1CCCCCCCl` [Example 120], the affinity, expressed as Kd, was 480 nM.

Take `O=C1NC(Cc2ccc(Br)cc2)C(=O)N1c1cc(Cl)cc(Cl)c1` (centres unmarked) [Example 19]: the Kd turned out to be 760 nM.

On to `CN1C(=O)N(c2cc(Cl)cc(Cl)c2)C(=O)C1(C)Cc1ccccc1C#N` (centres unmarked) [Example 152], for which the affinity, expressed as Kd, was 2660 nM.

Compound `COc1ccc(CC2(C)C(=O)N(c3cc(Cl)cc(Cl)c3)C(=O)N2C)cc1` (centres unmarked) [Example 166] returned a Kd of 280 nM.

Compound `CCCN1C(=O)N(c2cc(Cl)cc(Cl)c2)C(=O)C1(C)Cc1ccc(Br)cc1` (centres unmarked) [Example 106] registered a Kd of 140 nM.

`O=C1NC(Cc2ccccc2)C(=O)N1c1cc(Cl)c(I)c(Cl)c1` (centres unmarked) [Example 71]: the Kd stood at 4380 nM.

For `Cc1ccccc1CC1(C)C(=O)N(c2cc(Cl)cc(Cl)c2)C(=O)N1C` (centres unmarked) [Example 148], the Kd was 500 nM.

In the case of `CCOc1ccccc1-c1ccc(CC2(C)NC(=O)N(c3cc(Cl)cc(Cl)c3)C2=O)cc1` (centres unmarked) [Example 193], the Kd was 290 nM.

With `C[C@@]1(Cc2ccc(Br)cc2)C(=O)N(c2cc(Cl)cc(Cl)c2)C(=O)N1Cc1cccc(C#N)c1` [Example 104], the Kd amounted to 270 nM.

`COC(=O)c1ccc(CC2(C)C(=O)N(c3cc(Cl)cc(Cl)c3)C(=O)N2C)cc1` (centres unmarked) [Example 174]: the Kd amounted to 710 nM.

In turn, `CC1(Cc2ccc(-c3cccc(Br)c3)cc2)NC(=O)N(c2cc(Cl)cc(Cl)c2)C1=O` (centres unmarked) [Example 206] gave a dissociation constant Kd of 730 nM.

In turn, `CC1(Cc2ccc(-c3ccccc3F)cc2)NC(=O)N(c2cc(Cl)cc(Cl)c2)C1=O` (centres unmarked) [Example 200] gave a Kd of 90 nM.

Compound `CC1(Cc2csc3ccccc23)NC(=O)N(c2cc(Cl)cc(Cl)c2)C1=O` (centres unmarked) [Example 27] showed a Kd of approximately 52000 nM.

The term Kd denotes the equilibrium constant for the complex coming apart. Read a low Kd as a tighter complex.

The values above are taken from patent USRE38132E1, “Phenylpyrrolidines, phenylimidazolidines,3-phenyl-1,3-oxizolidines and 3-phenyl-1,3-thiazolidines and their use in the treatment of inflammatory disease” (Boehringer Ingelheim Pharmaceuticals, Inc., priority 1997, dated 2003).
